Measurements: patent US7348359B2, “Retinoid X receptor modulators” (Eli Lilly and Company, priority 2001, dated 2008)

How the values were obtained:
RXR:RXR = target: T1, RXR:RXR (Homo sapiens, UniProt P19793); experiment: RXR:RXR agonist/antagonist efficacy in CV-1 cells; assay type: cell-based; conditions: for RXR:RXR CV-1 (%) Antag: maximal repression (100%) in the presence of 32 nM LGD1069; for RXR:RXR CV-1 (%) Ag: maximal response relative to maximal response of ATRA
T1 construct: host or cells: CV-1
T1 sequence (P19793 1-462): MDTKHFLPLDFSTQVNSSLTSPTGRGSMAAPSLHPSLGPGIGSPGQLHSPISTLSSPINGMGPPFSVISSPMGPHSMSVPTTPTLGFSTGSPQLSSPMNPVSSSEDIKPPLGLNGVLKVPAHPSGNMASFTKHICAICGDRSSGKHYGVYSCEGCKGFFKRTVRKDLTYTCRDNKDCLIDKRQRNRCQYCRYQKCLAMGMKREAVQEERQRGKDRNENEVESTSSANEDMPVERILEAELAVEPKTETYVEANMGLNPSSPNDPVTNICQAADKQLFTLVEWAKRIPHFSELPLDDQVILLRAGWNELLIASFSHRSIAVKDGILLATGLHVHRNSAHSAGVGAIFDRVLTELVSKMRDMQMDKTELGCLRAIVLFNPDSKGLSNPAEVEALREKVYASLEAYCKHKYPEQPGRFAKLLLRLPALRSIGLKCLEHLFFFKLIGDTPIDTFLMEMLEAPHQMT

RXR:PPARγ = target: T2, RXR:PPARγ (Homo sapiens, UniProt P19793); experiment: RXR:PPARγ synergy with BRL49653 in CV-1 cells; assay type: cell-based; conditions: maximal response in presence of 100 nM BRL49653 (RXR:PPARγ) relative to maximal response of BRL49653 alone
T2 construct: host or cells: CV-1
T2 sequence (P19793 1-462): T1 sequence (P19793 1-462)
T2 sequence (P37231 1-505 partner): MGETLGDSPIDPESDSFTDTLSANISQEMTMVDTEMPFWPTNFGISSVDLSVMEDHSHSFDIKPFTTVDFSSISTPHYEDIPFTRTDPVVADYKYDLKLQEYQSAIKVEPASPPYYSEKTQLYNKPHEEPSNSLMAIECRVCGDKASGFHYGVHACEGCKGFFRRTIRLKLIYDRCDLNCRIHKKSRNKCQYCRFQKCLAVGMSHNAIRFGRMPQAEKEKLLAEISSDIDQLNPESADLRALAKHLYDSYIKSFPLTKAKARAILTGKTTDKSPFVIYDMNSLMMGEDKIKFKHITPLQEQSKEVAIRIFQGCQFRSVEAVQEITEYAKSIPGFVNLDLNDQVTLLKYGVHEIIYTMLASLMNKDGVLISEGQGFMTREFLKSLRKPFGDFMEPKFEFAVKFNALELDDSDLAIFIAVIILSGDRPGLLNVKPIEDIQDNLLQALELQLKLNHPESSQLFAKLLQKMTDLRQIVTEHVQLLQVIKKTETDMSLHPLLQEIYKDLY

RXR:RAR = target: T3, RXR:RAR (Homo sapiens, UniProt P19793); experiment: RXR:RAR agonist efficacy in CV-1 cells; assay type: cell-based; conditions: for RXR:RAR CV-1 (%) Ag.: maximal response relative to maximal response of ATRA; for activation of RXR:RAR heterodimers: statement on Table 1
T3 construct: host or cells: CV-1
T3 sequence (P19793 1-462): T1 sequence (P19793 1-462)
T3 sequence (P10276 1-462 partner): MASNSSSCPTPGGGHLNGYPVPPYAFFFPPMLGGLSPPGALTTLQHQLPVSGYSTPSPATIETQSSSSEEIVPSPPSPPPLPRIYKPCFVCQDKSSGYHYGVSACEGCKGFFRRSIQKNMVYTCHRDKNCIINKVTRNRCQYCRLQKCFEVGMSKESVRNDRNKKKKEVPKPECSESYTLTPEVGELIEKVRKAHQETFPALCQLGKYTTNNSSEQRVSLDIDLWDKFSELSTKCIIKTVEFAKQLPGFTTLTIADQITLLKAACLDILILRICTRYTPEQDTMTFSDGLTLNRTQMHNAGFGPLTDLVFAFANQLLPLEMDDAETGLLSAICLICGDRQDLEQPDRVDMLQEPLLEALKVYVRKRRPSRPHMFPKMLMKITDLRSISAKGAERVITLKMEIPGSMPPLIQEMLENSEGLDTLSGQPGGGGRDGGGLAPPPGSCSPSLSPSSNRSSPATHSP

[1] = test system: transgenic mice carrying the human apo A-I gene; experiment: Mice transgenic for the human apolipoprotein A-I gene: HDL cholesterol and triglycerides; assay type: in vivo; conditions: transgenic mouse model; Table 1
Source text: Mice transgenic for the human apolipoprotein A-I gene (obtained from Jackson Laboratory) were used to evaluate PPARα mediated effects on high density lipoprotein (HDL) cholesterol. The mice were handled as described above for db/db mice, except that they were fed Purina 5001.
When administered to transgenic mice carrying the human apo A-I gene, compounds of the invention are expected to increase HDL cholesterol. […] This effect is consistent with activation of PPARα and, in fact, in vivo these compounds synergize with the weak PPARα agonist fenofibrate.

RXR α = target: T4, RXR α (Homo sapiens, UniProt P19793); experiment: RXR α binding, Ki from IC50 by Cheng-Prussof equation using tritiated LGD1069; conditions: determined from IC50 values by the Cheng-Prussof equation using tritiated LGD1069; read-out: Bind RXR α Ki
T4 sequence (P19793 1-462): T1 sequence (P19793 1-462)

db/db mouse = db/db mouse plasma glucose and triglycerides, oral gavage; assay type: in vivo; conditions: for db/db mouse Glu. (D 7): plasma glucose as a % correction relative to lean values on day 7 of treatment with 30 mg/kg/day; for db/db mouse Trigs. (D 3): plasma triglycerides as a % of control values on day 3 of treatment with 30 mg/kg/day
rodent models of NIDDM = experiment: Rodent models of NIDDM, effects of full RXR homodimer agonists
Protocol: All animal experiments were conducted in a United States Department of Agriculture registered facility in accordance with NIH guidelines for the care and use of laboratory animals. Mice (obtained from Jackson Laboratory), ZDF rats (obtained from Genetic Models Inc.) and fa/fa rats (obtained from either Charles River, or Harlan) were maintained on 12-hour light/dark cycle. Mice (age 28-42 days) were caged in groups of 5-6. Rats (age 7 weeks) were housed individually. […] Compounds were administered at the specified doses by oral gavage on the morning of each day of any experiment. Blood samples were obtained 3 hours after dosing from fed animals under anesthesia and collected into heparinized capillary tubes from the tail vein.

Row | melting point [°C] | Compound | RXR:RXR CV-1 (%) Antag (RXR:RXR) [%] | RXR:RXR CV-1 (%) Ag (RXR:RXR) [%] | PPARγ CV-1 (%) Synergy (RXR:PPARγ) [%] | RXR:RAR CV-1 (%) Ag. (RXR:RAR) [%] | activation of RXR:RAR heterodimers (RXR:RAR) | triglycerides [1] | Ki (RXR α) [µM] | db/db mouse Glu. (D 7) (db/db mouse) [%] | db/db mouse Trigs. (D 3) (db/db mouse) [%] | other results
1 |  | CCCOc1c(-c2cccc3sc(/C(C)=C/C(=O)O)cc23)cc(C(C)C)cc1C(C)C [Ex. 15] | 81 | 4 | 109 | 6 | do not activate RXR:RAR heterodimers | do not raise triglycerides | 0.014 | 20 | 98 | 
2 |  | Cc1cc2c(cc1C1(c3ccc(C(=O)O)cn3)CC1)C(C)(C)CCC2(C)C [LG100268] |  |  |  |  |  | raises triglycerides |  | 73 | 195 | blood glucose levels (rodent models of NIDDM): lower blood glucose levels; thyroid hormone axis (rodent models of NIDDM): suppress the thyroid hormone axis; triglycerides (rodent models of NIDDM): raise triglycerides
3 | 146 to 153 | C/C(=C\C(=O)O)c1ccc2[nH]cc(-c3cc(C(C)(C)C)cc(C(C)(C)C)c3OCC(F)(F)F)c2c1 [Example 65, 3-{3-[3,5-Di-tert-butyl-2-(2,2,2-trifluoro-ethoxy)-phenyl]-1H-indol-5-yl}-but-2-enoic acid] |  |  |  |  |  |  |  |  |  | 
4 |  | C/C(=C\C(=O)O)c1cc2c(-c3cc(C(C)(C)C)cc(C(C)(C)C)c3OCC(F)F)cccc2s1 [Ex. 14, 3-{4-[2-(2,2-Difluoroethoxy)-3,5-di-tert-butylphenyl]-benzo[b]thien-2-yl}-but-2-enoic acid] | 79 | 1 | 67 | 2 | do not activate RXR:RAR heterodimers | do not raise triglycerides | 0.012 | 35 | 139 | 
5 |  | CCOc1c(-c2cccc3cc(/C(C)=C/C(=O)O)oc23)cc(C(C)C)cc1C(C)C [Ex. 5, 3-[7-(2-Ethoxy-3,5-diisopropylphenyl)-benzo[b]furan-2-yl]-but-2-enoic acid] | 10 | 33 | 140 | 3 | do not activate RXR:RAR heterodimers | do not raise triglycerides | 0.022 | 17 | 104 | 
6 |  | CCCCOc1c(-c2c(F)ccc3sc(/C(C)=C/C(=O)O)cc23)cc(C(C)C)cc1C(C)C [Ex. 18, (E)-3-[4-(2-n-Butoxy-3,5-di-iso-propylphenyl)-5-fluorobenzo[b]thien-2-yl]-but-2-enoic acid] | 86 | 1 | 40 | 4 | do not activate RXR:RAR heterodimers | do not raise triglycerides | 0.054 | 38 | 105 | 
7 | 105 to 115 | CCCOc1c(-c2c[nH]c3ccc(/C(C)=C/C(=O)O)cc23)cc(C(C)(C)C)cc1C(C)(C)C [Example 63, 3-[3-(3,5-Di-tert-butyl-2-propoxy-phenyl)-1H-indol-5-yl]-but-2-enoic acid] |  |  |  |  |  |  |  |  |  | 
8 | 135 to 145 | C/C(=C\C(=O)O)c1ccc2[nH]cc(-c3cc(C(C)(C)C)cc(C(C)(C)C)c3OCC(F)F)c2c1 [Example 64, 3-{3-[3,5-Di-tert-butyl-2-(2,2-difluro-ethoxy)-phenyl]-1H-indol-5-yl}-but-2-enoic acid] |  |  |  |  |  |  |  |  |  | 
9 |  | CN(C)C(=N)N=C(N)N [metformin, reference compound] |  |  |  |  |  |  |  |  |  | plasma glucose (db/db mouse; 7 week old db/db mice, 300 mg/kg by daily oral gavage, maximum effect after first week, efficacy decreases over 3 subsequent weeks): lowers plasma glucose

Row | Compound | melting point [°C] | RXR:RXR CV-1 (%) Antag (RXR:RXR) [%] | RXR:RXR CV-1 (%) Ag (RXR:RXR) [%] | PPARγ CV-1 (%) Synergy (RXR:PPARγ) [%] | RXR:RAR CV-1 (%) Ag. (RXR:RAR) [%] | activation of RXR:RAR heterodimers (RXR:RAR) | triglycerides [1] | Ki (RXR α) [µM] | db/db mouse Glu. (D 7) (db/db mouse) [%] | db/db mouse Trigs. (D 3) (db/db mouse) [%] | other results
10 | CCCCOc1c(-c2ccnc3ccc(/C(C)=C/C(=O)O)cc23)cc(C(C)C)cc1C(C)C [Example 54, 3-[4-(2-Butoxy-3,5-diisopropyl-phenyl)quinolin-6-yl]-but-2(E)-enoic acid] | 195.3 |  |  |  |  |  |  |  |  |  | 
11 | CCCCOc1c(-c2nccc3ccc(/C(C)=C/C(=O)O)cc23)cc(C(C)C)cc1C(C)C [Example 53, 3-[1-(2-Butoxy-3,5-diisopropyl-phenyl)-isoquinolin-7-yl]-but-2(E)-enoic acid] | 149.8 |  |  |  |  |  |  |  |  |  | 
